Laboratory results published in patent publication EP0998939A1, “Chalcone plant extracts for use in therapy” (THE SCHOOL OF PHARMACY, UNIVERSITY OF LONDON, priority 1998, dated 2000).
≈ marks a conversion by molar mass, not a printed value.

Assays:
Blood platelets = experiment: Inhibition of blood platelet aggregation (TPA or ADP induced) in platelet rich plasma; assay type: cell-based, human; conditions: for Percentage Inhibition of ADP Induced Aggregation: ADP 6.4 µg; for Percentage Inhibition of TPA Induced Aggregation: TPA 0.5µg
Experimental: Blood platelets release inflammatory mediators in response to an external stimulus, which affect the proliferation of the cells, which is an important part of the disease psoriasis. • 1. Male human blood was collected via venipucture of the forearm directly in to anticoagulant buffer, from healthy donors who had denied any medication for two weeks, and centrifuged at 1000rpm for 20 minutes at room temperature. • 2. The supernatant was employed as platelet rich plasma (PRP). Platelet poor plasma (PPP) was obtained by centrifuging 1ml of PRP at 11,000 rpm for 10 minutes. • 3. Inhibition of platelet aggregation was tested by adding 2.5µl of a known concentration (containing 10µg or 50µg) of the test compound to a 500µl sample ofPRP for one minute. An aggregation agent was then added as a solution to the sample in a 2.5µl quantity (containing TPA 0.5,µg or ADP 6.4 µg). Aggregation was measured using a dual channel aggregometer . • 4. Aggregation was taken as the % change in light transmission compared to the maximum change produced by TPA or ADP plus the control solution. PRP was used as a standard for zero light transmission and PP for 100% light transmission.

Female CD1 mice = experiment: Topical chemical erythema: inhibition of TPA induced erythema on the mouse ear; assay type: in vivo; conditions: for ED50 (dose required to inhibit erythema in at least 50% of the animals): applied to the right ear in 5µl, 20 minutes prior to TPA (0.1µg/5µl); for inhibition of chemically induced (TPA) erythema on the mouse ear, result in words: comparison among extracts or among the three chalcones
Experimental: Ref. Williamson E.M. and Evans F. (1981), Inhibition of erythema induced by proinflammatory esters of 12-deoxyphorbol. Acta Pharmacol. Toxicol.,48, 47-52
Female CD1 mice, weighing approximately 20g were used. • 2. Test plant extracts as produced in Example 1 were applied externally to the right ear of each mouse, at predetermined concentrations in 5µl quantities, 20 minutes prior to the application of the irritant compound 12-O-tetradecanoylphorbal-13-acetate (TPA)(0.1µg/5µl). • 3. A […] response was indicated by redness and inflammation of the ear. • 4. Observations were recorded at 2,3,4,6,7, and 24 hours after the application of TPA. Maximum inflammation caused by TPA alone occurs at 6 hours after the application of TPA.
Erythema of the mouse ear is the simplest experiment to perform as mice have translucent ears in which reddening is easily visible. Quantification is subjective, however the erythema can be described as pronounced, slight or absent. • Isoliquiritigenin ED50 (dose required to inhibit erythema in at least 50% of the animals) 20-50,µg • Licochalcone B ED50 5-10µg • Echinatin ED50 5-10µg

[1] = system: swiss 3T3 mouse fibroblast cells; experiment: Cell culture 3[H] thymidine assay, Example 6.1 cytotoxicity testing (normal cell growth); assay type: cell-based; conditions: for Percentage Inhibition of 3T3 Swiss Fibroblast Growth, Example 6.1: cytotoxicity, no TPA
Experimental: (§1) Cells used were swiss 3T3 mouse fibroblast cells • 1. 6 x 24 well plates were required for each experiment. • 2. Cells were removed from the standard tissue culture flask using a 1% solution of EDTA and resuspended in 10 ml of media and pipetted off into a falcon tube. • 3. The cells were then spun for 5 minutes at about 2,000rpm. • 4. The existing media was removed, and the cells again resuspended in 10ml of 10% foetal calf serum (FCS) and vortexed. • 5. The 10ml of suspension was then added to 140ml of media and mixed in a sterile jar. 1ml of the media cell suspension was then placed into each well and the plates incubated until confluent, three days .
(§2) • 1. [PCl]Cells were dosed with the test compounds (as specified below) 2 days prior to the addition of 3 [H]thymidine. The cells could only be dosed with a 0.5% solution, 5µl test solution in 1ml cellsuspension i.e. 5µl in 1ml, (TPA - 0.5µM). • 2. 0.5µl of 3[H] thymidine was added per well, therefore 72µl was added to 144µl of media (1%F.C.S.) to dose the corresponding six plates. • 3. 100µl of the media was taken to measure the measure the radioactive dose […], and added to 4ml of scintillation fluid. • 4. The radioactive media was then transferred to sterile specimen tubes and dosed with the test compounds before adding to the cells. • 5. After four hours ofbeing pulsed with radiolabelled thymidine (0.5µCi/ml) the media was removed and washed down the sink. • 6. The cells were washed twice with ice cold phosphate buffered saline (PBS), 0.5ml per well, and incubated for 30 min using ice cold 5% trichloroacetic acid (TCA) ( 1ml) per well at room temperature. • 8. The TCA was then removed and another 1ml of 5% TCA was added for 5 minutes. After the TCA was removed and 0.3NaOH and 0.1% sodium dodecyl sulphate added to each well for 30 minutes (1ml/well). • 9. The contents of each well was added to scintillation vials containing 4ml of scintillation fluid and each sample counted for four minutes using a scintillation counter. Three different assays were carried out using this protocol; • 6.1. Cytotoxicity testing of the compounds. After 48 hours of incubation and the cells were confluent a predetermined quantity of the test compounds was added to the cells. • 6.2. Inhibition of TPA induced proliferation. After 48 hours a preditermined quantity concentration of the test compounds was added to the cells as well as 0.5um of TPA. […] Inhibition of TPA induced proliferation. After 48 hours a predetermined quantity concentration of the test compounds was added to the cells for 24 hours, at 72 hours the media was changed again to contain both test compound and 0.5µM of the TPA. The objective of this experiment was to observe whether the prior incubation with the test compound had any effect on the TPA induced proliferation of the cells.

[2] = system: swiss 3T3 mouse fibroblast cells; experiment: Cell culture 3[H] thymidine assay, Example 6.2 inhibition of TPA induced proliferation (compound added together with TPA); assay type: cell-based; conditions: with 0.5µM TPA
Experimental: as §1, §2

[3] = system: swiss 3T3 mouse fibroblast cells; experiment: Cell culture 3[H] thymidine assay, Example 6.3 inhibition of TPA induced proliferation (24 hours prior incubation with compound); assay type: cell-based; conditions: compound 24 hours before compound + 0.5µM TPA
Experimental: as §1, §2

[4] = system: human polymorphonuclear neutrophils; conditions: properties associated with inflammatory processes; cited from earlier work
platelet aggregation = conditions: in rats, compared with aspirin; cited from earlier work
male Wistar rats = experiment: UV-B induced erythema (dermatitis) in rat, epidermal thickness and number of epidermal cell layers; assay type: in vivo; conditions: five days; for No. of cells (epidermal proliferation as compared to the control, no treatment) / Thickness (epidermal thickening as compared to the control, no treatment): control = 100; for Percentage inhibition of epidermal proliferation (No. of cells, in brackets) / Percentage inhibition of epidermal thickening (in brackets): UV Exposure + Active Compound versus UV Exposure
Experimental: Rat UV-B induced dermatitis is characterised by a brownish red lesion with scab formation. Histologically, microvascular dilation, intraepidermal accumulation ofleukocytes and hyperproliferation of epidermal cells are all very similar to the symptoms of psoriasis in man (Nakaguma,H., Int. J.ofExp.Path, 76:65-73, 1995) • 1. Hair on the dorsal skin of male Wistar rats (180g) was clipped and shaved, whilst the rats were under anaesthesia, 24 hours prior to the experiment. • 2. The rats were covered by a black plastic sheeting, with two rectangular holes (about 1cm^2) cut out, thus allowing two exposure sites on the dorsal skin whilst protecting the rest of the animal. • 3. The rats were then exposed to UV-B light (302nm) at a distance of 10cm for six minutes and thirty seconds. The total W-B exposure was 2.4J/cm^2 as measured using a UV-X radiometer. • 4. The test compound was then placed onto one of the exposed areas and an unexposed area at a concentration of 100µg/5µl, in a suitable vehicle solution. • 5. Application of the test compound was repeated for five days. • 6. Histological post-mortem sections were taken on the fifth day, and stained using haematoxylin and eosin. The number ofepidermal cell layers and the epidermal thickness was counted and measured at random. Five animals were used per test group.

platelets = conditions: cited from earlier work
[5] = Conc. 10µg test compound in 500µl PRP
[6] = Conc. 50µg test compound in 500µl PRP
[7] = Active Compound Only, unexposed area, 100µg/5µl
[8] = UV Exposure + Active Compound, 100µg/5µl topical

Structure (SMILES) | Percentage Inhibition of ADP Induced Aggregation (Blood platelets; [5]) [%] | Percentage Inhibition of ADP Induced Aggregation (Blood platelets; [6]) [%] | Percentage Inhibition of TPA Induced Aggregation (Blood platelets; [6]) [%] | ED50 (dose required to inhibit erythema in at least 50% of the animals) (Female CD1 mice) [µg] | inhibition of chemically induced (TPA) erythema on the mouse ear, result in words (Female CD1 mice) | Percentage Inhibition of 3T3 Swiss Fibroblast Growth, Example 6.1 ([1]; Concentration 1 µg) [%] | Percentage Inhibition of 3T3 Swiss Fibroblast Growth, Example 6.1 ([1]; Concentration 10 µg) [%] | Percentage Inhibition of 3T3 Swiss Fibroblast Growth, Example 6.1 ([1]; Concentration 20 µg) [%] | Percentage Inhibition of 3T3 Swiss Fibroblast Growth, Example 6.2 ([2]; Concentration 1 µg) [%] | Percentage Inhibition of 3T3 Swiss Fibroblast Growth, Example 6.2 ([2]; Concentration 10 µg) [%] | Percentage Inhibition of 3T3 Swiss Fibroblast Growth, Example 6.2 ([2]; Concentration 20 µg) [%] | Percentage Inhibition of 3T3 Swiss Fibroblast Growth, Example 6.3 ([3]; Concentration 1 µg) [%] | Percentage Inhibition of 3T3 Swiss Fibroblast Growth, Example 6.3 ([3]; Concentration 10 µg) [%] | Percentage Inhibition of 3T3 Swiss Fibroblast Growth, Example 6.3 ([3]; Concentration 20 µg) [%] | Percentage Inhibition of TPA Induced Aggregation (Blood platelets; [5]) [%] | effect on degranulation in human polymorphonuclear neutrophils [4] | Percentage Inhibition of 3T3 Swiss Fibroblast Growth, Example 6.1 ([1]; Concentration 0.01 µg) [%] | Percentage Inhibition of 3T3 Swiss Fibroblast Growth, Example 6.1 ([1]; Concentration 0.1 µg) [%] | Percentage Inhibition of 3T3 Swiss Fibroblast Growth, Example 6.2 ([2]; Concentration 0.01 µg) | Percentage Inhibition of 3T3 Swiss Fibroblast Growth, Example 6.2 ([2]; Concentration 0.1 µg) | further results
COc1cc(O)ccc1/C=C/C(=O)c1ccc(O)cc1 [Echinatin, echinatin] | 13 | 14 | 6 | 5 to 10 | most effective | 85 | 94 | 99 | 42 | 98 | 99 | 65 | 96 | 96 | – | – | – | – | – | – | Percentage Inhibition of 3T3 Swiss Fibroblast Growth, Example 6.1 ([1]; Concentration 1 µg, listed as echinatin): up to 82%; EC50 ([1]; Mus musculus, normal cell growth of 3T3 cells, exact value not established): 0.1 to 1 µg/mL (≈ 0.37 to 3.7 µM)
O=C(/C=C/c1ccc(O)cc1)c1ccc(O)cc1O [Isoliquiritigenin, isoliquiritigenin] | 20 | 26 | 13 | 20 to 50 | – | 32 | 32 | 54 | 4 | 28 | 29 | 50 | 47 | 61 | 3 | had no effect | 20 | 18 | 6% | +4% | inhibiting blood platelet aggregation, result in words (Blood platelets; comparison among the three chalcones, especially ADP induced aggregation): most active; level of inhibition of platelet aggregation (platelet aggregation): comparable to aspirin; Percentage Inhibition of 3T3 Swiss Fibroblast Growth, Example 6.3 ([3]; Concentration 0.01 µg): 31%; Percentage Inhibition of 3T3 Swiss Fibroblast Growth, Example 6.3 ([3]; Concentration 0.1 µg): 39%; No. of cells (epidermal proliferation as compared to the control, no treatment) (male Wistar rats; [7]): 103%; Thickness (epidermal thickening as compared to the control, no treatment) (male Wistar rats; [7]): 102%; Percentage inhibition of epidermal proliferation (No. of cells, in brackets) (male Wistar rats; 100µg/5µl): (77) %; Percentage inhibition of epidermal thickening (in brackets) (male Wistar rats; 100µg/5µl): (71) %; No. of cells (epidermal proliferation as compared to the control, no treatment) (male Wistar rats; [8]): 119%; Thickness (epidermal thickening as compared to the control, no treatment) (male Wistar rats; [8]): 116%
COc1c(/C=C/C(=O)c2ccc(O)cc2)ccc(O)c1O [Licochalcone B, licochalcone B] | – | 15 | 13 | 5 to 10 | most effective | 41 | 55 | 86 | 31 | 32 | 73 | 22 | 69 | 85 | 4 | had an effect | 16 | 13 | +26% | 17% | Percentage Inhibition of 3T3 Swiss Fibroblast Growth, Example 6.3 ([3]; Concentration 0.01 µg): 2%; Percentage Inhibition of 3T3 Swiss Fibroblast Growth, Example 6.3 ([3]; Concentration 0.1 µg): 37%; No. of cells (epidermal proliferation as compared to the control, no treatment) (male Wistar rats; [7]): 103%; Thickness (epidermal thickening as compared to the control, no treatment) (male Wistar rats; [7]): 96%; Percentage inhibition of epidermal proliferation (No. of cells, in brackets) (male Wistar rats; 100µg/5µl): (83) %; Percentage inhibition of epidermal thickening (in brackets) (male Wistar rats; 100µg/5µl): (75) %; No. of cells (epidermal proliferation as compared to the control, no treatment) (male Wistar rats; [8]): 129%; Thickness (epidermal thickening as compared to the control, no treatment) (male Wistar rats; [8]): 135%
CCCCCCCCCCCCCC(=O)O[C@@H]1[C@@H](C)[C@@]2(O)[C@@H](C=C(CO)C[C@]3(O)C(=O)C(C)=C[C@@H]23)[C@@H]2C(C)(C)[C@]12OC(C)=O [TPA, 12-O-tetradecanoylphorbol-13-acetate] | – | – | – | – | – | – | – | – | – | – | – | – | – | – | – | – | – | – | – | – | concentration causing irreversible platelet aggregation (platelets): 0.2 µM
